Measured values published in US8241648B2, “Amphiphilic or lipophilic polar functionalized fullerenes and their uses” (Luna Innovations Incorporated, priority 2007, dated 2012).

Assay: Radical addition of an unstable nitrogen:peroxide radical (immobilized activated amine, butanone peroxide, xylene), measured by HPLC
Conditions: control anti-oxidant in xylene, same conditions
Procedure: An unstable nitrogen radical was made by adding butanone peroxide to nitrogen immobilized on a solid substrate in the presence of either C70, C60 or, as a control, the anti-oxidant Vitamin E in xylene. Radical addition of the substrate to the immobilized, activated amine is measured by HPLC. […] 74% of the C70 was bound to the nitrogen while only 27% of the C60 was bound.

Vitamin E
reaction with the unstable nitrogen radical: did not react at all
